The text below walks through data of patent publication US6005116A, “Isoxazole compounds useful for the prophylaxis or treatment of nervous diseases” (Sankyo Company, Limited, priority 1996, dated 1999).

Where a name gives a salt, the structure may show the parent alone.

One experiment has as its target T1, Type A-monoamine oxidase (Mus musculus, UniProt Q64133).
T1 sequence (Q64133 1-526): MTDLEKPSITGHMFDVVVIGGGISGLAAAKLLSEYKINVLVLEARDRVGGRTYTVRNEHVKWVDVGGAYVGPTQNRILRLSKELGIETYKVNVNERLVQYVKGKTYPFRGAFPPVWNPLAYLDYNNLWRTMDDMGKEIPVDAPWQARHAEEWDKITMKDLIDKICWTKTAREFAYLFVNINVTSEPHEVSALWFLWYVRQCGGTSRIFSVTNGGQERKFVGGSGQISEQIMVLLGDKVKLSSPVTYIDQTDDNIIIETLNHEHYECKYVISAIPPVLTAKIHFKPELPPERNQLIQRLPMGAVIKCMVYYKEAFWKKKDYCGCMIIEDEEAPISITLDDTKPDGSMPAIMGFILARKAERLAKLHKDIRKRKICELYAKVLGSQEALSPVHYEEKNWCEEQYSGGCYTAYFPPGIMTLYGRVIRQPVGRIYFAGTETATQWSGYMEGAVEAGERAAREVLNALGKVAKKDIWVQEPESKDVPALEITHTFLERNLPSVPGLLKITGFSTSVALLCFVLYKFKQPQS
The experiment can be described thus: Type A-monoamine oxidase inhibitory activity. Type of experiment: biochemical.
Conditions: not given
In the case of `CC(C)c1c(OCCN)noc1-c1ccc(Cl)cc1Cl` [Example 57, 3-(2-Aminoethoxy)-5-(2,4-dichlorophenyl)-4-isopropylisoxazole hydrochloride], the IC50 was less than 0.028 µM.

The experiment is the same for the next values; noted with them: mouse brain crude mitochondria; substrate 14C-5-HT 100 μM; preincubated at 38° C. for 20 minutes; phosphate buffer pH 7.4; read-out: IC50 (concentration of the compound which decreases the 14C radioactivity of the control by 50%).
Turning to `C=CCc1c(OCCN)noc1-c1ccccc1` [Example 60, 4-Allyl-3-(2-aminoethoxy)-5-phenylisoxazole hydrochloride], the IC50 was less than 0.028 µM. `NCCOc1noc(-c2cccnc2)c1Cl` [Example 8, 3-(2-Aminoethoxy)-4-chloro-5-(3-pyridyl)isoxazole hydrochloride]: the IC50 is less than 0.028 µM.

`NCCOc1cc(-c2cccnc2)on1` [Example 7, 3-(2-Aminoethoxy)-5-(3-pyridyl)isoxazole hydrochloride]: the IC50 was less than 0.028 µM. Take `CC(C)c1c(OCCN)noc1-c1ccccc1Cl` [Example 58, 3-(2-Aminoethoxy)-5-(2-chlorophenyl)-4-isopropylisoxazole hydrochloride]: the IC50 was less than 0.028 µM. The same measure, in the same setting: in the case of `NCCOc1cc(-c2ccccc2)on1` [Example 1, 3-(2-Aminoethoxy)-5-phenylisoxazole hydrochloride] it was less than 0.028 µM; in that of `CC(C)Cc1c(OCCN)noc1-c1ccccc1` [Example 62, 3-(2-Aminoethoxy)-4-isobutyl-5-phenylisoxazole hydrochloride], less than 0.028 µM; in that of `NCCOc1cc(-c2cccs2)on1` [Example 5, 3-(2-Aminoethoxy)-5-(2-thienyl)isoxazole hydrochloride], less than 0.028 µM. As for `CC(C)c1c(OCCN)noc1-c1cccs1` [Example 67, 3-(2-Aminoethoxy)-4-isopropyl-5-(2-thienyl)isoxazole hydrochloride], the IC50 was less than 0.028 µM. Turning to `CC(C)c1c(OCCN)noc1-c1ccco1` [Example 54, 3-(2-Aminoethoxy-5-(2-furyl)-4-isopropylisoxazole hydrochloride], the IC50 was less than 0.028 µM. Regarding `CC(C)c1c(OCCN)noc1-c1ccccc1` [Example 4, 3-(2-Aminoethoxy)-4-isopropyl-5-phenylisoxazole hydrochloride], the IC50 was less than 0.028 µM.

For `CC(C)c1c(OCCN)noc1-c1ccc(Cl)cc1` [Example 59, 3-(2-Aminoethoxy)-5-(4-chlorophenyl)-4-isopropylisoxazole hydrochloride], the IC50 is less than 0.028 µM. Turning to `NCCOc1noc(-c2cccs2)c1Cl` [Example 6, 3-(2-Aminoethoxy)-4-chloro-5-(2-thienyl)isoxazole hydrochloride], the IC50 was less than 0.028 µM. Still for that read-out and setting: for `NCCOc1cc(-c2ccc(Cl)cc2)on1` [Example 3, 3-(2-Aminoethoxy)-5-(4-chlorophenyl)isoxazole hydrochloride] the value was less than 0.028 µM; for `NCCOc1noc(-c2ccccc2)c1Cl` [Example 2, 3-(2-Aminoethoxy)-4-chloro-5-phenylisoxazole hydrochloride], less than 0.028 µM.
